These results are taken from ChEMBL document CHEMBL4152338, “Design, synthesis and screening of 1, 2, 4-triazinone derivatives as potential antitumor agents with apoptosis inducing activity on MCF-7 breast cancer cell line” (Eur J Med Chem, 2018).

Assay [1] has as its system MCF7. In words: Antiproliferative activity against human MCF7 cells after 48 hrs by MTT assay. The assay is classed as functional, cell-based. The following applies: MCF7, 48 h. Background: Formazan colour is commonly taken as a measure of viable cells.
Assay [2] deals with MCF7. Briefly: Induction of apoptosis in human MCF7 cells assessed as early apoptotic cells at IC50 after 24 hrs by annexin V/FITC-propidium iodide staining-based flow cytometric method (reference value: 0.72%). Type of assay: functional.
In assay [3] the test system is MCF7. Briefly: Induction of apoptosis in human MCF7 cells assessed as late apoptotic cells at IC50 after 24 hrs by annexin V/FITC-propidium iodide staining-based flow cytometric method (reference value: 0.34%). Type of assay: functional. A general note: In flow cytometry, cells or beads pass a laser one at a time.
For assay [4], the system named is MCF7. In words: Induction of apoptosis in human MCF7 cells assessed as necrotic cells at IC50 after 24 hrs by annexin V/FITC-propidium iodide staining-based flow cytometric method (reference value: 0.53%). The assay is classed as functional.
For assay [5], the system named is MCF7. Briefly: Inhibition of tubulin beta polymerization in human MCF7 cells at IC50 after 18 to 24 hrs by spectrophotometric method relative to control. Type of assay: cell-based.
Assay [6] concerns the target T1, DNA topoisomerase 2-beta (Homo sapiens, UniProt Q02880). Briefly: Inhibition of human DNA topoisomerase 2beta after 2 hrs by ELISA. (In general: ELISA stands for enzyme-linked immunosorbent assay.)
The subject of assay [7] is MCF7. Briefly: Upregulation of p53 level in human MCF7 cells at IC50 incubated for 24 hrs by ELISA relative to control. Type of assay: functional.
The test system of assay [8] is MCF7. In words: Upregulation of Bax level in human MCF7 cells at IC50 incubated for 24 hrs by ELISA relative to control. Type of assay: functional.
Assay [9] has as its system MCF7. Briefly: Down regulation of Bcl-2 level in human MCF7 cells at IC50 incubated for 24 hrs by ELISA. The assay is classed as functional, cell-based.
Assay [10] relates to MCF7. Briefly: Upregulation of caspase3/7 level in human MCF7 cells at IC50 incubated for 24 hrs by green flow cytometric analysis relative to control. The assay is classed as functional.
Assay [11] deals with MCF7. Briefly: Increase in Bax/Bcl-2 ratio in human MCF7 cells at IC50 incubated for 24 hrs by ELISA. The assay is classed as functional, cell-based.
The subject of assay [12] is MCF7. Briefly: Upregulation of caspase3/7 level in human MCF7 cells at IC50 assessed as caspase 3/7 green fluorescence incubated for 24 hrs by green flow cytometric analysis (reference value: 0.49%). The assay is classed as functional.
Assay [13] in a line: Antiproliferative activity against human Hs 371.T cells after 48 hrs by MTT assay. Type of assay: cell-based.
Assay [14] deals with MCF7. Briefly: Potency index, ratio of podophyllotoxin IC50 to compound IC50 for human MCF7 cells. The assay is classed as functional.
Assay [15] has as its system MCF7. In words: Cell cycle arrest in human MCF7 cells assessed as increase in accumulation at G0 phase at IC50 after 24 hrs by propidium iodide staining-based flow cytometric analysis. The assay is classed as functional.
Assay [16] relates to MCF7. Briefly: Cell cycle arrest in human MCF7 cells assessed as decrease in accumulation at G1 phase at IC50 after 24 hrs by propidium iodide staining-based flow cytometric analysis. Type of assay: functional.
Assay [17] concerns MCF7. Briefly: Cell cycle arrest in human MCF7 cells assessed as accumulation at G2 phase at IC50 after 24 hrs by propidium iodide staining-based flow cytometric analysis. The assay is classed as functional.
The subject of assay [18] is MCF7. In words: Induction of apoptosis in human MCF7 cells assessed as viable cells at IC50 after 24 hrs by annexin V/FITC-propidium iodide staining-based flow cytometric method (reference value: 96.57%). Type of assay: functional.
Assay [19] relates to MCF7. Briefly: Potency index, ratio of ratio of compound effect to podophyllotoxin efect for induction of apoptosis in human MCF7 cells. The assay is classed as functional.
Assay [20] addresses T1, DNA topoisomerase 2-beta. Briefly: Potency index, ratio of etopside IC50 to compound IC50 for topoisomerase 2beta in human MCF7 cells. The assay is classed as cell-based.
The test system of assay [21] is MCF7. Briefly: Upregulation of p53 level in human MCF7 cells at IC50 incubated for 24 hrs by ELISA relative to podophyllotoxin. The assay is classed as functional.
For assay [22], the system named is MCF7. In words: Potency index, ratio of ratio of compound effect to podophyllotoxin efect for cell cycle arrest in human MCF7 cells assessed as increase in cell percentage at G0 phase at IC50 after 24 hrs by propidium iodide staining-based flow cytometric analysis. The assay is classed as functional.

Calls of active or inactive are those of the source. The rule behind the calls is not given here.

T1 sequence (Q02880 whole entry): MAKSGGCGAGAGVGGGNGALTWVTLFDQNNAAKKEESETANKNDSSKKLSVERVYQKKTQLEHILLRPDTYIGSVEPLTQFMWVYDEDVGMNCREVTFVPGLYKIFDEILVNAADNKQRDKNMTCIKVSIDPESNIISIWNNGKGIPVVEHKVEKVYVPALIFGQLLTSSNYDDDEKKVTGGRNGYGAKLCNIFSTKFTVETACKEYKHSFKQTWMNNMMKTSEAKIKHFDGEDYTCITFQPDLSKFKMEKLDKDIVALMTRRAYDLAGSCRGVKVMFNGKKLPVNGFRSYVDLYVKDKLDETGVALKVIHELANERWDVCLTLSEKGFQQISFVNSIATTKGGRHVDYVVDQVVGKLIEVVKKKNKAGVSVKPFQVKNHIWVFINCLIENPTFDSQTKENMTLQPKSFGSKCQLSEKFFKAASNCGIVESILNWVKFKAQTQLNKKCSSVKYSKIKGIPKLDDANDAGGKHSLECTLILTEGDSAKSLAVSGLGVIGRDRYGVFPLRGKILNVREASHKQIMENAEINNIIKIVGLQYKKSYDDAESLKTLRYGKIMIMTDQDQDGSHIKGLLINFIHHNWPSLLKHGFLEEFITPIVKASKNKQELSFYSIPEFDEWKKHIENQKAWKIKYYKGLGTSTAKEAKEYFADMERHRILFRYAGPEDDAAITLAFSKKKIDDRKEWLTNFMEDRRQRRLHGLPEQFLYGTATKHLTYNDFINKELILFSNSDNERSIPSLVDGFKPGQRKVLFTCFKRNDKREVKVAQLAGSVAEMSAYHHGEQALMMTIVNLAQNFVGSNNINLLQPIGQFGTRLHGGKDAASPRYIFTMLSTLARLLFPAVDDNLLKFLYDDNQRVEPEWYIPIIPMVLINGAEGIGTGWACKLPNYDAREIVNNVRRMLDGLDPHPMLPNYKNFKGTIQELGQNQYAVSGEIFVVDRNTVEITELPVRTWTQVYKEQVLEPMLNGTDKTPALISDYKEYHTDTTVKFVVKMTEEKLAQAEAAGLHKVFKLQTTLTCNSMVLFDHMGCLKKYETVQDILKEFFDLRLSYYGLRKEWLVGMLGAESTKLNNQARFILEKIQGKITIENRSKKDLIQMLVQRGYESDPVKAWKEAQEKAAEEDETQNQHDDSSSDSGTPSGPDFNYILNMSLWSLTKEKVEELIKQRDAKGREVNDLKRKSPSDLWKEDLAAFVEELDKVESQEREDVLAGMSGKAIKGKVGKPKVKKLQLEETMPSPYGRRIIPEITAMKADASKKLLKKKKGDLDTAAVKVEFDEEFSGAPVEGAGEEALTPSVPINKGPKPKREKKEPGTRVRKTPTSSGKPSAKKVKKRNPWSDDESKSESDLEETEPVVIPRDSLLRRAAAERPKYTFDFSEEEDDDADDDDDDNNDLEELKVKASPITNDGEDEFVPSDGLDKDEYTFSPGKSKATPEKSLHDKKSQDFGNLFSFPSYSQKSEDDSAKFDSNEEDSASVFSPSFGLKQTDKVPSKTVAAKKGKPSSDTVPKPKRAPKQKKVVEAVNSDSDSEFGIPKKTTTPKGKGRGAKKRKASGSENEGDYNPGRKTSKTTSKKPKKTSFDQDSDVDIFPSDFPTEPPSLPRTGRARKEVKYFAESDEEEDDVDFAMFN

Usually IC50 stands for the concentration at which inhibition is half-maximal. The low end stands for higher potency, the high end for lower potency. Compound `CC(=O)Oc1c(Br)cc(Br)cc1/C=C1\N=C(c2ccccc2)N(c2ncc(-c3ccccc3)s2)NC1=O` displayed an IC50 in the assay with MCF7 [1] of 38.3 µM.

For the compound `CC(=O)Oc1c(Br)cc(Br)cc1/C=C1\N=C(c2ccccc2)N(c2ncc(-c3ccc(Br)cc3)s2)NC1=O`, the IC50 with MCF7 [1] is 9.49 µM.

As usually defined, the inhibition is the percentage by which the read-out fell short of the control. On to `COc1cc(C(=O)N/C(=C/c2cc(Br)cc(Br)c2OC(C)=O)C(=O)NNC(N)=S)cc(OC)c1OC`, for which the IC50 with MCF7 [1] came to 2.85 µM; on DNA topoisomerase 2-beta [6], 0.0814 µM. The Activity with MCF7 [2] worked out at 4.66%; in the assay on MCF7 [3], 5.62%; with MCF7 [4] it was 2.11%; in the assay on MCF7 [12], 6.91%. In the assay with MCF7 [5], this compound returned an inhibition of 62.3%. The “fold change (FC)” value with MCF7 [7] amounted to 4.2; in the assay on MCF7 [8] it was 2.2; with MCF7 [10], 24.1. Moreover, the outcome in the assay with MCF7 [9] and with MCF7 [11] was Active.

Turning to `COc1ccc(C2=N/C(=C\c3cc(Br)cc(Br)c3OC(C)=O)C(=O)NN2C(N)=S)cc1OC`, in the assay with MCF7 [1], the IC50 amounted to 13.4 µM.

Consider `CC(=O)Oc1c(Br)cc(Br)cc1/C=C1\N=C(c2ccccc2)n2c(=S)nc(C)n2C1=O`, for which the IC50 with MCF7 [1] is above 100 µM.

In turn, `COc1ccc(C2=N/C(=C\c3cc(Br)cc(Br)c3OC(C)=O)C(=O)NN2c2ncc(-c3ccccc3)s2)cc1OC` came in with an IC50 in the assay on MCF7 [1] of 4.33 µM.

In the assay with MCF7 [1], `CC(=O)Oc1c(Br)cc(Br)cc1/C=C(/NC(=O)c1ccccc1)C(=O)NNC(N)=S` yielded an IC50 of 16.8 µM.

In the assay on MCF7 [1], `CC(=O)Oc1c(Br)cc(Br)cc1/C=C1\N=C(c2ccccc2)N(c2ccccc2)NC1=O` displayed an IC50 of 19.4 µM.

For the compound `COc1ccc(C2=N/C(=C\c3cc(Br)cc(Br)c3OC(C)=O)C(=O)n3c(C)nc(=S)n32)cc1OC`, inhibition in the assay with MCF7 [1] was half-maximal at 6.84 µM (IC50).

`CC(=O)Oc1c(Br)cc(Br)cc1/C=C1\N=C(c2ccccc2)N(C(N)=S)NC1=O`: the IC50 in the assay with MCF7 [1] was 28.5 µM; in assay [13], 80.1 µM.

`COc1ccc(C2=N/C(=C\c3cc(Br)cc(Br)c3OC(C)=O)C(=O)NN2c2ccccc2)cc1OC` displayed an IC50 in the assay on MCF7 [1] of 5.39 µM.

Turning to `COc1cc(C2=N/C(=C\c3cc(Br)cc(Br)c3OC(C)=O)C(=O)NN2C(N)=S)cc(OC)c1OC`, the results for the IC50 (in the assay on MCF7 [1]; in assay [13]; on DNA topoisomerase 2-beta [6]) were 0.36 µM, 61.3 µM and 0.0317 µM, respectively. Also, the “Ratio IC50” value with MCF7 [14] stood at 6; on DNA topoisomerase 2-beta [20], 2.2. In addition, the result with MCF7 [15], in the assay with MCF7 [16], in the assay on MCF7 [17], in the assay on MCF7 [9] and with MCF7 [11] was Active. In addition, the Activity with MCF7 [2] was determined as 4.78%; in the assay on MCF7 [3], 10.88%; in the assay on MCF7 [4], 3.66%; in the assay with MCF7 [18] it was 78.79%; with MCF7 [12], 8.69%. Further, the Ratio in the assay with MCF7 [19] is 1.25. In the assay on MCF7 [5], this compound showed an inhibition of 44.4%. Besides, the “fold change (FC)” value amounted to 8.1 in the assay on MCF7 [7], 1.7 with MCF7 [21], 3.2 in the assay on MCF7 [8] and 21.6 in the assay with MCF7 [10].

For the compound `COc1ccc(C(=O)N/C(=C/c2cc(Br)cc(Br)c2OC(C)=O)C(=O)NNC(N)=S)cc1OC`, in the assay with MCF7 [1], the IC50 worked out at 8.97 µM.

In the case of `COc1cc([C@@H]2c3cc4c(cc3[C@H](O)[C@H]3COC(=O)[C@H]23)OCO4)cc(OC)c1OC` [PODOFILOX], the IC50 with MCF7 [1] worked out at 2.21 µM; in [13], 22.4 µM. In addition, the Activity was found to be 4.19% in the assay with MCF7 [2]; 7.02% in the assay on MCF7 [3]; 2.06% in the assay on MCF7 [4]; 84.61% in the assay on MCF7 [18]; 7.58% with MCF7 [12]. This compound also returned an inhibition in the assay on MCF7 [5] of 96.3%.

The compound `COc1cc(C2=N/C(=C\c3cc(Br)cc(Br)c3OC(C)=O)C(=O)NN2c2ncc(-c3ccc(Br)cc3)s2)cc(OC)c1OC` had an IC50 with MCF7 [1] of 3.16 µM.

Take `COc1cc(C2=N/C(=C\c3cc(Br)cc(Br)c3OC(C)=O)C(=O)NN2c2ncc(-c3ccccc3)s2)cc(OC)c1OC`: the IC50 in the assay with MCF7 [1] worked out at 0.41 µM; in assay [13], 77.4 µM; on DNA topoisomerase 2-beta [6] it was 0.00685 µM. In addition, the “Ratio IC50” value in the assay with MCF7 [14] was determined as 6; at DNA topoisomerase 2-beta [20] it was 10.2. The result in the assay with MCF7 [15], in the assay with MCF7 [16], in the assay on MCF7 [17], in the assay with MCF7 [9] and in the assay with MCF7 [11] was Active. Besides, the Activity with MCF7 [2] stood at 3.64%; in the assay on MCF7 [3] it was 6.33%; in the assay with MCF7 [4], 3.31%; in the assay with MCF7 [18] it was 84.46%; with MCF7 [12], 7.79%. The inhibition in the assay on MCF7 [5] is 55.2%. For the same compound, the “fold change (FC)” value in the assay on MCF7 [7] stood at 9.2; in the assay with MCF7 [21], 1.75; in the assay on MCF7 [8] it was 3.4; in the assay with MCF7 [10], 15.6.

In the assay with MCF7 [1], `COc1ccc(C2=N/C(=C\c3cc(Br)cc(Br)c3OC(C)=O)C(=O)NN2c2ncc(-c3ccc(Br)cc3)s2)cc1OC` displayed an IC50 of 3.28 µM.

In the case of `COc1cc(C2=N/C(=C\c3cc(Br)cc(Br)c3OC(C)=O)C(=O)n3c(C)nc(=S)n32)cc(OC)c1OC`, the IC50 is 3.07 µM in the assay with MCF7 [1], 58.7 µM in assay [13] and 0.11 µM against DNA topoisomerase 2-beta [6]. Moreover, the Activity with MCF7 [2] came to 3.38%; with MCF7 [3], 4.53%; in the assay on MCF7 [4], 1.73%; with MCF7 [18], 88.4%; with MCF7 [12], 7.58%. In the assay on MCF7 [5], this compound showed an inhibition of 88.2%. Also, the results for the “fold change (FC)” value with MCF7 [7], with MCF7 [8] and with MCF7 [10] were 5.1, 0.9 and 31.3, respectively. Besides, the outcome with MCF7 [9] was Active.

On to `COc1cc(C2=N/C(=C\c3cc(Br)cc(Br)c3OC(C)=O)C(=O)NN2c2ccccc2)cc(OC)c1OC`, for which the 50% inhibitory concentration (IC50) in the assay on MCF7 [1] was 0.35 µM; in assay [13], 44.3 µM; against DNA topoisomerase 2-beta [6], 0.0126 µM. The entries for the “Ratio IC50” value with MCF7 [14] and on DNA topoisomerase 2-beta [20] were 6 and 5.3, respectively. Also, the outcome in the assay on MCF7 [15], in the assay on MCF7 [16], in the assay on MCF7 [17], with MCF7 [9] and in the assay with MCF7 [11] was Active. The Ratio with MCF7 [22] was 1.4; in the assay on MCF7 [19] it was 1.5. The Activity with MCF7 [2] is recorded as 5.47%; in the assay with MCF7 [3], 7.85%; with MCF7 [4], 3.14%; with MCF7 [18], 81.41%; in the assay on MCF7 [12] it was 11.28%. The inhibition with MCF7 [5] came out at 33.4%. In addition, the “fold change (FC)” value is 1.9 in the assay on MCF7 [7], 2.1 in the assay on MCF7 [21], 3.9 with MCF7 [8] and 18 with MCF7 [10].
